Laboratory results published in patent US8658167B2, “Methods and compositions for treatment and diagnosis of fibrosis, tumor invasion, angiogenesis, and metastasis” (Gilead Biologics, Inc., priority 2007, dated 2014).

Key:
[1] = target: T1, LOX (Mus musculus, UniProt P28301); assay: Surface-associated LOX activity in 3T3 cells (HRP-coupled Amplex Ultra Red assay, 1,5-diaminopentane substrate); format: cell-based; settings: BAPN 1 mM; LOX mAb 15 ug/ml; LOX siRNA 100 nM, day seven after transfection; FIG. 15
T1 construct: Specific LOX activity was evident on the cell surface of NIH3T3 cells; endogenous in cells; host or cells: NIH 3T3
T1 sequence (P28301 163-411): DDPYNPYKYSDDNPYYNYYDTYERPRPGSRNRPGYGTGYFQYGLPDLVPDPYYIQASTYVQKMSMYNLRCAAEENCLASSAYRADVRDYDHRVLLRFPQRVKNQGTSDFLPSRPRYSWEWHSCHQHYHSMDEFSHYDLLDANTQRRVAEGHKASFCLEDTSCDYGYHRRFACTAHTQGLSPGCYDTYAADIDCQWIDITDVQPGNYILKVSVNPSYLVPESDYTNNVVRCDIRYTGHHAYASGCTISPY
Description: Specific LOX activity was evident on the cell surface of NIH3T3 cells. Activity was quantitated with a horseradish peroxidase-coupled fluorescent assay method based on the oxidation of Amplex Ultra Red with a 1,5-diaminopentane substrate. LOX activity was inhibited with the irreversible small molecule inhibitor, BAPN, with a monoclonal antibody raised against a LOX peptide, and with a siRNA oligonucleotide specifically targeting LOX mRNA. (FIG. 15)
NIH 3T3 cells were transfected with 100 nM of LOX siRNA (Invitrogen Stealth, HSS106117, […] (SEQ ID NO:20)) or non-targeting control. 25 ul of Dharmafect® #3 (Dharmacon) was mixed with 1 ml of OPTIMEM I® (Invitrogen) and sat for 5 minutes at room temperature. 50 ul of 20 uM siRNA was then added, mixed and the transfection mix was incubated at room temperature for 15 minutes. 1 ml of transfection mix was then added to a trypsinized cell suspension in growth media containing 1×10^6 cells and the resulting mixture was plated into a 10 cm^2 culture dish. Six days after transfection, cells were trypsinized and re-plated into 96 well plate format at 50,000 cells/well. […] The plate was read in a Molecular Devices M5 plate reader at 37° C. The plate reader was configured to read fluorescence (ex=544 nm, em=590 nm) in kinetics mode for approximately 2.5 hours.

[2] = tested on: LOXL2; assay: Mode of inhibition of LOXL2; format: biochemical; settings: 1,5-diaminopentane substrate; FIG. 21
Description: Mode of inhibition of antibodies against LOXL2 was conducted using the model described below. In these experiments, the dependence of the steady state rate on the concentration of 1,5-diaminopentane was monitored under increasing concentrations of antibody. The purpose was to assess whether the Km for substrate, kcat or both change in the presence of antibody. Parameter α describes the effect of the compound on substrate affinity. An α value equal to one describes a situation in which the compound binds equally well the free enzyme and the enzyme-substrate complex (non-competitive inhibition like). Values less than one describe an interaction in which the compound binds the enzyme-substrate complex (uncompetitive inhibition like). Values greater than one correspond to the compound binding the free enzyme better than the enzyme-substrate complex (competitive inhibition like). The β value describes the effect of the modulator on the rate of the enzyme. Inhibitors have values less than one (for a complete inhibitor β=0) and activators have values greater than one. […] The steady state rates were determined from the slope of the fluorescence response as a function of time as described above. Data was plotted as the dependence of steady state rate on the concentration of substrate (1,5-diaminopentane) at several fixed concentrations of antibody and analyzed with GraFit.

[3] = tested on: MDA-MB-231; assay: Drug sensitivity assays with LOX/LOXL inhibition (CellTiter Glo viability); format: cell-based, human
Description: After 5 days of continuous exposure, cultures were rinsed and live cell number was determined using CellTiter Glo™ (Promega, San Luis Obispo, Calif.) according to manufacturer instructions. […] (FIGS. 36, 37, 38)
For siRNA drug sensitivity studies, cells were transiently transfected with […] LOX, LOXL2, or non-targeting Stealth Select™ RNAi validated oligos using the Dharmafect transfection reagent according to manufacturer instructions (Thermo Scientific, Lafayette, Colo.) 24 hrs prior to drug exposure. Knock down levels following drug exposure were verified with quantitative PCR. Stable shRNA cell lines were generated using the MISSION© shRNA Lentiviral System (Sigma-Aldrich, St. Louis, Mo.).

Which “surface-associated LOX activity in 3T3 cells” value [1] does the source give for `N#CCCN` [BAPN, β-aminoproprionitrile] here?
Its value is “inhibited”.

And the “mode of inhibition of LOXL2” value [2]?
The value was “competitive inhibitor”.

Which “decrease of calculated IC50” value ([3]; MDA-MB-231 siLOX, siLOXL2 and siLOX/siLOXL2 double knockdown cell lines vs parent cell line (control), FIG. 39A) does the source give for `COc1cccc2c1C(=O)c1c(O)c3c(c(O)c1C2=O)C[C@@](O)(C(=O)CO)C[C@@H]3O[C@H]1C[C@H](N)[C@H](O)[C@H](C)O1` [doxorubicin] here?
The value was 27%-55%.

For `C#Cc1cccc(Nc2ncnc3cc(OCCOC)c(OCCOC)cc23)c1` [erlotinib, Erlotinib], which “reduction in cell viability (calculated IC50 compared to control line)” value ([3]; shLOXL2 knockdown cell line (shLOXL2.195) vs sh control, parental MDA-MB-231, FIG. 36) is on record?
The value was “approximately 7 fold”.

How did the reduction in viability ([3]; MDA-MB-231 shLOX knockdown cell line vs GFP control, FIG. 37) turn out when `CN(Cc1cnc2nc(N)nc(N)c2n1)c1ccc(C(=O)N[C@@H](CCC(=O)O)C(=O)O)cc1` [methotrexate (MTX), methotrexate] was run?
Its reduction in viability is ~2 fold.
